Assay [1] addresses T1, ACL (Homo sapiens (Human), UniProt P53396). Description: ADP-Glo Assay. On the technique in general: In ADP-Glo the light output rises with the ADP produced.
Target sequence in this assay (P53396 other isoform, or with tags, fused parts or gaps isoform P53396-2): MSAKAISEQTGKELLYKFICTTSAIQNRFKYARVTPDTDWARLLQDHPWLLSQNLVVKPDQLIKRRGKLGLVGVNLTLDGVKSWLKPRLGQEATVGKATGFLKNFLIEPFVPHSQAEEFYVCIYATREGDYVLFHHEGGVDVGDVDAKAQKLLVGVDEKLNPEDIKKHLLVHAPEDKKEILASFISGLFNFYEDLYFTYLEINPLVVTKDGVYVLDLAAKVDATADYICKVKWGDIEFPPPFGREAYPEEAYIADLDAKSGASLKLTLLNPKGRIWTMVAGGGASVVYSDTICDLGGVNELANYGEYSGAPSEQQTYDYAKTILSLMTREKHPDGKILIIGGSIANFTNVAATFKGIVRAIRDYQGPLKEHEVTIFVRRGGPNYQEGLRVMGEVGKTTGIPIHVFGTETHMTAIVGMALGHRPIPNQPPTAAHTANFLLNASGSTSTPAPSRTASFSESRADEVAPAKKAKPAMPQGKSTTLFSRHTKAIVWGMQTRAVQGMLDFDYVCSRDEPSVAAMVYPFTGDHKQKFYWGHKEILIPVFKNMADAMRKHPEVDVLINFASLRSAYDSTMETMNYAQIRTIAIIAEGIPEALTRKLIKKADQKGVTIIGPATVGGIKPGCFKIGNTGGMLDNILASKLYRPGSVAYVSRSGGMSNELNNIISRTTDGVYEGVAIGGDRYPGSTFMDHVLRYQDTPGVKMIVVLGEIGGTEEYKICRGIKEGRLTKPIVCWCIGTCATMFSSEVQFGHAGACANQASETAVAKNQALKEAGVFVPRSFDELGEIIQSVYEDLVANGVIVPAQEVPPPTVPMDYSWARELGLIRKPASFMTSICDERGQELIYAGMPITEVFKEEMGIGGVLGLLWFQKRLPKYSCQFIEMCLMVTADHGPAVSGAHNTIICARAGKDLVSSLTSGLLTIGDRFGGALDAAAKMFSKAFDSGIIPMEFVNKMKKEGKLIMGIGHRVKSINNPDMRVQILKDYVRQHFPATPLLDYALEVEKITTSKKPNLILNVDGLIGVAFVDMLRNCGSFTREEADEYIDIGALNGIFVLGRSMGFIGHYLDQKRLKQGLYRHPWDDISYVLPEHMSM
Assay [2] concerns the target T1, ACL. Description: ACLY-MDH Coupled Assay.
Target sequence in this assay (P53396 whole entry, species assumed): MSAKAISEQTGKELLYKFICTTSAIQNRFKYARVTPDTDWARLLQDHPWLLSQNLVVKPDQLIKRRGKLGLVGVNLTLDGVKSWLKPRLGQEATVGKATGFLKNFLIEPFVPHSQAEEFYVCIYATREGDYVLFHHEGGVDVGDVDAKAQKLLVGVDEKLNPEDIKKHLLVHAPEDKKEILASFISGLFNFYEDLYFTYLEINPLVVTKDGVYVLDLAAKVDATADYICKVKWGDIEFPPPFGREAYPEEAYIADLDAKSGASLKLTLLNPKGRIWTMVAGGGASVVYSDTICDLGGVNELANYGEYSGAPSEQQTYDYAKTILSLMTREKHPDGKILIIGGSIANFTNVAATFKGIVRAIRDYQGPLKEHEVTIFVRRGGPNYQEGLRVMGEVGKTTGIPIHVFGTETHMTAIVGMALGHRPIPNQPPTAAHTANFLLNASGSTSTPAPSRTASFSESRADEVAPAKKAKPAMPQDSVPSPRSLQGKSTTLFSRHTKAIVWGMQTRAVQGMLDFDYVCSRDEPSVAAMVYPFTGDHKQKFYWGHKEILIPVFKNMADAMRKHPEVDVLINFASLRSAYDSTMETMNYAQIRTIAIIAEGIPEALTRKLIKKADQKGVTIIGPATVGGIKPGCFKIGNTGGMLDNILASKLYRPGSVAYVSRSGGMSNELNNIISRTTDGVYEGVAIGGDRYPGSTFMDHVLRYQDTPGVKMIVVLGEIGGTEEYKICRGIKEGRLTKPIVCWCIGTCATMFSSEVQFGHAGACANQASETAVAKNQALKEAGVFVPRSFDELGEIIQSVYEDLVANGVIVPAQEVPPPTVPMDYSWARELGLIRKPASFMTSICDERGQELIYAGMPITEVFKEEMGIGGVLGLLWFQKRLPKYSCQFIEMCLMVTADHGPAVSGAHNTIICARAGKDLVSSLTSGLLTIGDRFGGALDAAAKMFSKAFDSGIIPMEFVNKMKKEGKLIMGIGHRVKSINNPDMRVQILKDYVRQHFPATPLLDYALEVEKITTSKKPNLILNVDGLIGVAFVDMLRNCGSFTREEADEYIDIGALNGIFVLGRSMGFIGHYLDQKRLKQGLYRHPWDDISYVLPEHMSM
Protocol: Compounds of the present invention were evaluated in an ACLY Coupled Assay.
The assay protocol for the Coupled Assay (below) was followed:
b) Add 1 μL cpds to 96 assay plate, Test cpd conc: 100/30/10 μM top dose, 3 folds dilution, 10+0+control (control: buffer without ACL+DMSO) points, 1000 rpm for 1 min, incubation at 25° C. for 60 min
Assay [3] deals with HepG2 cells. The conditions noted are these: Homo sapiens, HepG2, read-out: ACLY HepG2 14C-Pyruvate Assay serum free IC50 FA (IC50) [μM].
Protocol: ACLY HepG2 ^14C-Pyruvate Incorporation Serum-Free Assay (IC50 Fatty
The protocol of the assay (below) was followed:
(§1) After 48 hours, change medium with fresh growth medium.
(§2) After 18 hours, replaced medium using 0.5 mL fresh medium (5.5 mM Glucose, without FBS, 1% PS, without Pyruvate) containing Compounds or 0.5% DMSO, incubated at 37° C., 5% CO2 for 1 hour.
(§3) Add 3 μci of [14C]-pyruvate per well to the cell samples were incubated at 37° C., 5% CO2 for 5 hours.
Medium was removed and placed into a 15 mL centrifuge tube. Add 0.5 mL of 0.1M NaOH to each well and then transfer the cell lysates into the corresponding 15 mL centrifuge tubes. 1.0 mL of EtOH and 0.17 mL 50% KOH were added to 15 mL tubes containing medium and cell suspensions, then shaking tube gently. […] Saponification 15 mL tubes containing medium and cell suspensions were incubated at 90° C. for 1 hour, then cooled to room temperature. […] Cholesterol Extraction 5 mL of petroleum ether was added per tube to extract Cholesterol, shaken vigorously, centrifuged at 1000 rpm for 5 min, and ˜5 mL of the petroleum ether layer was transferred to a new glass tube (18*180 mm). […] Acidification The samples in 15 mL tube were acidified directly with 1 mL concentrated HCl, make sure pH was below 1. […] Fatty Acids Extraction 5 mL of petroleum ether was added per tube, shaken vigorously, centrifuged at 1000 rpm for 5 min, 5 mL of the petroleum ether layer was transferred to the corresponding glass tube. […] Repeat the Step 8 10. Count The petroleum ether extracts were pooled and evaporated to dryness overnight. The residue from the petroleum ether fractions were resuspended in 500 μL of chloroform-hexane (1:1) containing 420 μg of linoleic acid as a carrier. Add 200 μL of resuspending (chloroform-hexane (1:1) containing 168 μg of linoleic acid) to 2 mL Ultima Gold™, after 30 min, count on a scintillation counter.
In assay [4] the test system is HepG2 cells. The following applies: Homo sapiens, HepG2, read-out: ACLY HepG2 14C-Pyruvate Assay serum free IC50 Cholesterol (IC50) [μM].
Protocol: ACLY HepG2 ^14C-Pyruvate Incorporation Serum-Free Assay (IC50 Cholesterol and Fatty Acid Synthesis)
Compounds of the present invention were evaluated in a HepG2 ^14C-pyruvate incorporation assay. The protocol below was followed:
as §1, §2, §3
Medium was removed and placed into a 15 mL centrifuge tube. Add 0.5 mL of 0.1M NaOH to each well and then transfer the cell lysates into the corresponding 15 mL centrifuge tubes. 1.0 mL of EtOH and 0.17 mL 50% KOH were added to 15 mL tubes containing medium and cell suspensions, then shaking tube gently. […] Saponification 15 mL tubes containing medium and cell suspensions were incubated at 90° C. for 1 hour, then cooled to room temperature. […] Cholesterol Extraction 5 mL of petroleum ether was added per tube to extract Cholesterol, shaken vigorously, centrifuged at 1000 rpm for 5 min, and ˜5 mL of the petroleum ether layer was transferred to a new glass tube (18*180 mm). […] Acidification The samples in 15 mL tube were acidified directly with 1 mL concentrated HCl, make sure pH was below 1. […] Fatty Acids Extraction 5 mL of petroleum ether was added per tube, shaken vigorously, centrifuged at 1000 rpm for 5 min, 5 mL of the petroleum ether layer was transferred to the corresponding glass tube. […] Count The petroleum ether extracts were pooled and evaporated to dryness overnight. The residue from the petroleum ether fractions were resuspended in 500 μL of chloroform-hexane (1:1) containing 420 μg of linoleic acid as a carrier. Add 200 μL of resuspending (chloroform-hexane (1:1) containing 168 μg of linoleic acid) to 2 mL Ultima Gold™, after 30 min, count on a scintillation counter.
Setting [5] is: read-out: ACL-ADP-Glo (IC50), 3 nM ACL, 15 μM ATP, 3 μM CoA, 300 μM Citrate.
[6] abbreviates: read-out: ACL-MDH Coupled Assay (IC50), 8 nM ACL, 60 μM CoA Na2, 85 μM Citrate, 250 μM ATP, 250 μM NADH.

Where two headings read alike, the source gives them in different places. Bounds are passed on as bounds.

For 28 compounds, IC50 results are on record in US11555012B2 (Nimbus Artemis, Inc., priority 2018, dated 2023).

For orientation: IC50 means the concentration that inhibits the measured activity by half.

On to `COc1ccc(-c2ccccc2)cc1NS(=O)(=O)c1c(C)c(Cl)cc(Cl)c1O` [I-1, 3,5-dichloro-2-hydroxy-N-(4-methoxy-[1,1′-biphenyl]-3-yl)-6-methylbenzenesulfonamide], for which the 50% inhibitory concentration (IC50) lay within 50 to 500 nM at ACL [1], 50 to 500 nM against ACL [2], 1 to 10 µM in the assay on HepG2 cells [3] and 1 to 5 µM in the assay on HepG2 cells [4].
As to `COc1ccc(-c2ccc(F)cc2)cc1NS(=O)(=O)c1cc(Cl)cc(Cl)c1O` [I-6, 3,5-dichloro-N-(4′-fluoro-4-methoxy-[1,1′-biphenyl]-3-yl)-2-hydroxybenzenesulfonamide], the IC50 was 50 to 500 nM at ACL [1], 50 to 500 nM against ACL [2], over 10 µM in the assay on HepG2 cells [3] and 1 to 5 µM in the assay with HepG2 cells [4].
Turning to `COc1ccc(-c2cccs2)cc1NS(=O)(=O)c1cc(Cl)cc(Cl)c1O` [I-9, 3,5-dichloro-2-hydroxy-N-(2-methoxy-5-(thiophen-2-yl)phenyl)benzenesulfonamide], the IC50 against ACL [1] lay in the range of 50 to 500 nM; on ACL [2], 50 to 500 nM; in the assay on HepG2 cells [3], 1 to 10 µM; in the assay with HepG2 cells [4], 1 to 5 µM.
Turning to `COc1cc(-c2ccccc2)ccc1NS(=O)(=O)c1cc(Cl)cc(Cl)c1O` [I-13, 3,5-dichloro-2-hydroxy-N-(3-methoxy-[1,1′-biphenyl]-4-yl)benzenesulfonamide], the IC50 at ACL [1] is 500 to 20000 nM; at ACL [2], 500 to 30000 nM; in the assay with HepG2 cells [3] it was 1 to 10 µM; with HepG2 cells [4] it was 1 to 5 µM.
In the same order, the values of `O=S(=O)(Nc1ccccc1OCc1ccccc1)c1cc(Cl)cc(Cl)c1O` [I-15, N-(2-(benzyloxy)phenyl)-3,5-dichloro-2-hydroxybenzenesulfonamide] are 500 to 20000 nM, 500 to 30000 nM, 1 to 10 µM and 1 to 5 µM.
In the same order, the values of `O=S(=O)(NC(c1ccccc1)c1ccccc1)c1cc(Cl)cc(Cl)c1O` [I-16, N-benzhydry1-3,5-dichloro-2-hydroxybenzenesulfonamide] are 500 to 20000 nM, 500 to 30000 nM, 1 to 10 µM and 1 to 5 µM.
In the case of `COc1ccc(-c2ccccc2)cc1NS(=O)(=O)c1cc(Cl)cc(Br)c1O` [I-20, 3-bromo-5-chloro-2-hydroxy-N-(2-methoxy-5-phenylphenyl)benzene-1-sulfonamide], the half-maximal inhibitory concentration (IC50) on ACL [1] is 50 to 500 nM; on ACL [2], under 50 nM; in the assay on HepG2 cells [3] it was 1 to 10 µM; in the assay with HepG2 cells [4], 1 to 5 µM.
On to `COc1ccc(-c2ccccc2)cc1NS(=O)(=O)c1cc(Br)cc(Cl)c1O` [I-21, 5-bromo-3-chloro-2-hydroxy-N-(2-methoxy-5-phenylphenyl)benzene-1-sulfonamide], for which the concentration for half-maximal inhibition (IC50) at ACL [1] was in the range of 50 to 500 nM; against ACL [2] it was 50 to 500 nM; in the assay with HepG2 cells [3] it was 1 to 10 µM; with HepG2 cells [4], 1 to 5 µM.
For the compound `O=S(=O)(Nc1cc(-c2ccccc2)ccc1F)c1cc(Cl)cc(Br)c1O` [I-23, 3-bromo-5-chloro-N-(4-fluoro-[1,1′-biphenyl]-3-yl)-2-hydroxybenzenesulfonamide], the half-maximal inhibitory concentration (IC50) against ACL [1] is 50 to 500 nM; against ACL [2] it was under 50 nM; in the assay with HepG2 cells [3], 1 to 10 µM; in the assay with HepG2 cells [4], 1 to 5 µM.
On to `N#Cc1cc(Cl)c(O)c(S(=O)(=O)Nc2cc(-c3ccccc3)ccc2F)c1` [I-31, 3-chloro-5-cyano-N-(4-fluoro-[1,1′-biphenyl]-3-yl)-2-hydroxybenzenesulfonamide], for which the IC50 is under 50 nM on ACL [1] (setting [5]), 50 to 500 nM at ACL [2], over 10 µM with HepG2 cells [3] and 1 to 5 µM with HepG2 cells [4].
As to `O=S(=O)(Nc1cc(-c2ccccc2)ccc1F)c1cccc(Cl)c1O` [I-33, 3-chloro-N-(4-fluoro-[1,1′-biphenyl]-3-yl)-2-hydroxybenzenesulfonamide], the IC50 is 50 to 500 nM on ACL [1], 500 to 30000 nM on ACL [2], over 10 µM with HepG2 cells [3] and 1 to 5 µM in the assay with HepG2 cells [4].
As to `O=S(=O)(Nc1cc(-c2ccccc2)ccc1F)c1cc(Br)cc(Cl)c1O` [I-34, 5-bromo-3-chloro-N-(2-fluoro-5-phenylphenyl)-2-hydroxybenzene-1-sulfonamide], the half-inhibitory concentration (IC50) against ACL [1] was 50 to 500 nM; on ACL [2], under 50 nM; in the assay with HepG2 cells [3], over 10 µM; with HepG2 cells [4] it was 1 to 5 µM.
In the same order, the values of `O=S(=O)(c1cc(Cl)cc(Br)c1O)N(Cc1ccccc1)c1cc(-c2ccccc2)ccc1F` [I-36, N-benzyl-3-bromo-5-chloro-N-(4-fluoro-[1,1′-biphenyl]-3-yl)-2-hydroxybenzenesulfonamide] are 500 to 20000 nM, 500 to 30000 nM, 1 to 10 µM and 1 to 5 µM.
As for `O=S(=O)(Nc1cc(-c2ccccc2)c(F)cc1F)c1cc(Cl)cc(Cl)c1O` [I-41, 3,5-dichloro-N-(2,4-difluoro-5-phenylphenyl)-2-hydroxybenzene-1-sulfonamide], the IC50 at ACL [1] (setting [5]) is under 50 nM; at ACL [2] (setting [6]), under 50 nM; with HepG2 cells [3] it was over 10 µM; with HepG2 cells [4], 1 to 5 µM.
Take `COC(=O)c1cc(Cl)c(O)c(S(=O)(=O)Nc2cc(-c3ccccc3)ccc2F)c1` [I-47, Methyl 3-chloro-5-(N-(4-fluoro-[1,1′-biphenyl]-3-yl)sulfamoyl)-4-hydroxybenzoate]: the IC50 on ACL [1] (setting [5]) is under 50 nM; on ACL [2] (setting [6]) it was under 50 nM; with HepG2 cells [3], 1 to 10 µM; with HepG2 cells [4] it was 1 to 5 µM.
As for `COC(=O)c1cc(Cl)c(O)c(S(=O)(=O)Nc2cc(-c3cccnc3)ccc2OC)c1` [I-48, Methyl 3-chloro-4-hydroxy-5-(N-(2-methoxy-5-(pyridin-3-yl)phenyl)sulfamoyl)benzoate], the IC50 at ACL [1] is 50 to 500 nM; against ACL [2] it was 500 to 30000 nM; in the assay on HepG2 cells [3], over 10 µM; in the assay on HepG2 cells [4], 1 to 5 µM.
As to `COc1ccc(-c2ccccc2)cc1NS(=O)(=O)c1cc(-c2ncco2)cc(Cl)c1O` [I-59, 3-chloro-2-hydroxy-N-(2-methoxy-5-phenylphenyl)-5-(1,3-oxazol-2-yl)benzene-1-sulfonamide], the IC50 is 50 to 500 nM on ACL [1], 50 to 500 nM at ACL [2], over 10 µM in the assay with HepG2 cells [3] and 1 to 5 µM with HepG2 cells [4].
For the compound `COC(=O)c1cc(Cl)c(O)c(S(=O)(=O)Nc2cc(-c3cccs3)ccc2F)c1` [I-60, Methyl 3-chloro-5-[[2-fluoro-5-(thiophen-2-yl)phenyl]sulfamoyl]-4-hydroxybenzoate], the half-maximal inhibitory concentration (IC50) on ACL [1] (setting [5]) is under 50 nM; at ACL [2] (setting [6]), under 50 nM; with HepG2 cells [3], 1 to 10 µM; with HepG2 cells [4] it was under 1 µM.
On to `COC(=O)c1cc(Cl)c(O)c(S(=O)(=O)Nc2cc(-c3ccccc3)c(F)cc2F)c1` [I-65, Methyl 3-chloro-5-[(2,4-difluoro-5-phenylphenyl)sulfamoyl]-4-hydroxybenzoate], for which the IC50 at ACL [1] (read-out: ACL-ADP-Glo (IC50)) is under 50 nM; at ACL [2] (setting [6]), under 50 nM; in the assay on HepG2 cells [3], over 10 µM; with HepG2 cells [4], 5 to 20 µM.
`CN(C)C(=O)c1cc(Cl)c(O)c(S(=O)(=O)Nc2cc(-c3ccccc3)c(F)cc2F)c1` [I-83, 3-chloro-5-[(2,4-difluoro-5-phenylphenyl)sulfamoyl]-4-hydroxy-N,N-dimethylbenzamide]: the results for the half-inhibitory concentration (IC50) with HepG2 cells [3] and with HepG2 cells [4] were over 10 µM and 1 to 5 µM, respectively.
Turning to `O=C(O)c1cc(Cl)c(O)c(S(=O)(=O)Nc2cc(-c3cc4ccccc4s3)c(F)cc2OC(F)(F)F)c1` [I-508, 3-(N-(5-(benzo[b]thiophen-2-yl)-4-fluoro-2-(trifluoromethoxy)phenyl)sulfamoyl)-5-chloro-4-hydroxybenzoic Acid], the 50% inhibitory concentration (IC50) fell in the range of 50 to 500 nM against ACL [1] and 500 to 30000 nM against ACL [2].
The matching figures for `O=S(=O)(Nc1cc(-c2ccccc2)ccc1OC(F)(F)F)c1cc(Cl)cc(Cl)c1O` [I-509, 3,5-dichloro-2-hydroxy-N-(4-(trifluoromethoxy)-[1,1′-biphenyl]-3-yl)benzenesulfonamide]: 50 to 500 nM and 50 to 500 nM.
`COc1cc(F)c(-c2cc3ccccc3s2)cc1NS(=O)(=O)c1cc(C(=O)O)cc(Cl)c1O` [I-510]: the IC50 on ACL [1] fell in the range of 500 to 20000 nM; at ACL [2], 500 to 30000 nM.
As to `O=C(c1cncs1)N(c1ccc(Cl)cc1)S(=O)(=O)c1cc(Br)cc(Cl)c1O` [I-511, N-((5-bromo-3-chloro-2-hydroxyphenyl)sulfonyl)-N-(4-chlorophenyl)thiazole-5-carboxamide], the concentration for half-maximal inhibition (IC50) on ACL [1] fell in the range of 500 to 20000 nM; at ACL [2], 500 to 30000 nM.
For `CC#Cc1cc(Cl)ccc1NS(=O)(=O)c1cc(Br)cc(Cl)c1O` [I-512], the IC50 at ACL [1] fell in the range of 500 to 20000 nM; against ACL [2], 500 to 30000 nM.
In the same order, the values of `CCN(c1ccc(Cl)cc1)S(=O)(=O)c1cc(Br)cc(Cl)c1O` [I-513, 5-bromo-3-chloro-N-(4-chlorophenyl)-N-ethyl-2-hydroxybenzene Sulfonamide] are 500 to 20000 nM and 500 to 30000 nM.
On to `O=S(=O)(c1cc(Br)cc(Cl)c1O)N(Cc1cncs1)c1ccc(Cl)cc1` [I-514, 5-bromo-3-chloro-N-(4-chlorophenyl)-2-hydroxy-N-(thiazol-5-ylmethyl)benzenesulfonamide], for which the concentration for half-maximal inhibition (IC50) on ACL [1] was 500 to 20000 nM; against ACL [2], 500 to 30000 nM.
In the same order, the values of `O=C(Nc1cc(-c2cc3ccccc3s2)ccc1C(=O)O)c1cc(Cl)cc(Cl)c1` [I-515, 4-(benzo[b]thiophen-2-yl)-2-(3,5-dichlorobenzamido)benzoic Acid] are 500 to 20000 nM and 500 to 30000 nM.
